In the supplement of paper PMC11208160:

Test: recombinant UMI read abundance after kanamycin selection (control-corrected) (log10(CPM+1)); higher = more efficient recombination; extreme values may be limits of the assay; sequences stand for … in AGTGCAGAGAAAATCGGCCAGTTTTCTCTGCCTGCAGTCCGCATGCCGTGGGACCCCTTGGGTTCTAACCTGTTGCCTAGATTTATGCAGCGGACTGCCTTTCTCCCAAAGTGATAAACCGG…AGGTTGGTTTCACT; site = the 11-nt donor
Summary of the method: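 Pooled Escherichia coli screen of donor and donor-binding-loop pairs for the IS621 bridge recombinase. Each pair sits with a 12-nt UMI on a plasmid carrying a promoterless kanamycin gene. The library was co-electroporated with a target plasmid encoding a fixed target and T7-inducible recombinase, then plated with IPTG (0.07 mM) plus kanamycin, or unselected, each in two replicates. Recombinant UMIs were PCR-amplified across the donor–target junction and sequenced. Counts became CPM, averaged over replicates, scaled by control-derived factors and reported as log10(CPM+1).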
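Further: IS621 bridge recombinase in Escherichia coli cells against a fixed T5 target plasmid.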

Sequence	recombinant UMI read abundance (log10)
CTCCCGACATGGACCGGTTTTCCCGGTAATCCGTATTTGAG (site CTCCCAACTCT)	0.849
CTCCCGACATGGACCGGTTTTCCCGGTAATCCGTATTTGAG (site CTCCCCACTCT)	0.00318
CTCCCGACATGGACCGGTTTTCCCGGTAATCCGTATTTGAG (site CTCCCGACTCT)	0.968
CTCCCGACATGGACCGGTTTTCCCGGTAATCCGTATTTGAG (site CTCCCTACTCT)	0.0167
CTCCCTACATGGACCGGTTTTCCCGGTAATCCGTATTTGAT (site CTCCCTACTAT)	1.01
CTCCCTACATGGACCGGTTTTCCCGGTAATCCGTATTTGAT (site CTCCCTACTCT)	0.00726
CTCCCTACATGGACCGGTTTTCCCGGTAATCCGTATTTGAT (site CTCCCTACTGT)	0.137
CTCCCTACATGGACCGGTTTTCCCGGTAATCCGTATTTGAT (site CTCCCTACTTT)	0.0164
CTCCCTACATGGACCGGTTTTCCCGGTAATCCGTATTTGGG (site CTCCCTACTCA)	0.037
CTCCCTACATGGACCGGTTTTCCCGGTAATCCGTATTTGGG (site CTCCCTACTCC)	0.0177
CTCCCTACATGGACCGGTTTTCCCGGTAATCCGTATTTGGG (site CTCCCTACTCG)	0.00544
CTCCCTACATGGACCGGTTTTCCCGGTAATCCGTATTTGGG (site CTCCCTACTCT)	0.0127
CTCCCTGCATGGACCGGTTTTCCCGGTAATCCGTATTTGGC (site CTCCCTGCTGC)	0
CTCCGACCATGGACCGGTTTTCCCGGTAATCCGTATTTGAC (site CTCCGACCTGT)	0
CTCCTACCATGGACCGGTTTTCCCGGTAATCCGTATTTGCT (site CTACTACCTAG)	0
CTCCTACCATGGACCGGTTTTCCCGGTAATCCGTATTTGCT (site CTCCTACCTAG)	0
CTCCTACCATGGACCGGTTTTCCCGGTAATCCGTATTTGCT (site CTGCTACCTAG)	0.00362
CTCCTACCATGGACCGGTTTTCCCGGTAATCCGTATTTGCT (site CTTCTACCTAG)	0
CTCGAAACATGGACCGGTTTTCCCGGTAATCCGTATTTGTG (site CTCGAAACTCA)	1.06
CTCGAATCATGGACCGGTTTTCCCGGTAATCCGTATTTGCA (site CTCGAATCTTG)	2.42
CTCGACACATGGACCGGTTTTCCCGGTAATCCGTATTTGGC (site CTCGACACTGC)	1.04
CTCGCAACATGGACCGGTTTTCCCGGTAATCCGTATTTGTT (site CTCGCAACTAA)	1.96
CTCGGAGCATGGACCGGTTTTCCCGGTAATCCGTATTTGAC (site CTCGGAGCTGT)	2.63

Sequence	recombinant UMI read abundance (log10)
CTCGTAACATGGACCGGTTTTCCCGGTAATCCGTATTTGAT (site CTCGTAACTAT)	2.31
CTCGTATCATGGACCGGTTTTCCCGGTAATCCGTATTTGAG (site CTAGTATCTGT)	0
CTCGTATCATGGACCGGTTTTCCCGGTAATCCGTATTTGAG (site CTCGTATCTCT)	1.9
CTCTAAGCATGGACCGGTTTTCCCGGTAATCCGTATTTGTC (site CTCTAAGCTGA)	1.81
CTCTACACATGGACCGGTTTTCCCGGTAATCCGTATTTGAT (site CTCTACACTAA)	0.0183
CTCTACACATGGACCGGTTTTCCCGGTAATCCGTATTTGAT (site CTCTACACTAC)	0.0649
CTCTACACATGGACCGGTTTTCCCGGTAATCCGTATTTGAT (site CTCTACACTAG)	0.00358
CTCTACACATGGACCGGTTTTCCCGGTAATCCGTATTTGAT (site CTCTACACTAT)	2.19
CTCTACACATGGACCGGTTTTCCCGGTAATCCGTATTTGCC (site CTCTACACTAG)	0.72
CTCTACACATGGACCGGTTTTCCCGGTAATCCGTATTTGCC (site CTCTACACTCG)	0.0134
CTCTACACATGGACCGGTTTTCCCGGTAATCCGTATTTGCC (site CTCTACACTGG)	2.37
CTCTACACATGGACCGGTTTTCCCGGTAATCCGTATTTGCC (site CTCTACACTTG)	2.13
CTCTACCCATGGACCGGTTTTCCCGGTAATCCGTATTTGCT (site CTCTACACTAG)	0.274
CTCTACCCATGGACCGGTTTTCCCGGTAATCCGTATTTGCT (site CTCTACCCTAG)	1.74
CTCTACCCATGGACCGGTTTTCCCGGTAATCCGTATTTGCT (site CTCTACGCTAG)	0.00357
CTCTACCCATGGACCGGTTTTCCCGGTAATCCGTATTTGCT (site CTCTACTCTAG)	2.87
CTCTAGACATGGACCGGTTTTCCCGGTAATCCGTATTTGCT (site CTCTAAACTAG)	0.681
CTCTAGACATGGACCGGTTTTCCCGGTAATCCGTATTTGCT (site CTCTACACTAG)	0.119
CTCTAGACATGGACCGGTTTTCCCGGTAATCCGTATTTGCT (site CTCTAGACTAG)	0.576
CTCTAGACATGGACCGGTTTTCCCGGTAATCCGTATTTGCT (site CTCTATACTAG)	0
CTCTCCACATGGACCGGTTTTCCCGGTAATCCGTATTTGCT (site CTCTACACTAG)	0.902
CTCTCCACATGGACCGGTTTTCCCGGTAATCCGTATTTGCT (site CTCTCCACTAG)	2.34
CTCTCCACATGGACCGGTTTTCCCGGTAATCCGTATTTGCT (site CTCTGCACTAG)	0

Sequence	recombinant UMI read abundance (log10)
CTCTCCACATGGACCGGTTTTCCCGGTAATCCGTATTTGCT (site CTCTTCACTAG)	0.534
CTCTGCACATGGACCGGTTTTCCCGGTAATCCGTATTTGCT (site CTCTACACTAG)	0.861
CTCTGCACATGGACCGGTTTTCCCGGTAATCCGTATTTGCT (site CTCTCCACTAG)	0.00325
CTCTGCACATGGACCGGTTTTCCCGGTAATCCGTATTTGCT (site CTCTGCACTAG)	2.1
CTCTGCACATGGACCGGTTTTCCCGGTAATCCGTATTTGCT (site CTCTTCACTAG)	0.00616
CTCTTCTCATGGACCGGTTTTCCCGGTAATCCGTATTTGTA (site CTCTTCTCTTA)	2.1
CTGACTCCATGGACCGGTTTTCCCGGTAATCCGTATTTGGG (site CTGACTCCTCC)	0.44
CTGCAAACATGGACCGGTTTTCCCGGTAATCCGTATTTGCA (site CTGAAAACTTG)	0
CTGCAAACATGGACCGGTTTTCCCGGTAATCCGTATTTGCA (site CTGCAAACTTG)	0.915
CTGCAAACATGGACCGGTTTTCCCGGTAATCCGTATTTGCA (site CTGGAAACTTG)	0
CTGCAAACATGGACCGGTTTTCCCGGTAATCCGTATTTGCA (site CTGTAAACTTG)	0
CTGCACCCATGGACCGGTTTTCCCGGTAATCCGTATTTGGC (site CTGCACCCTGC)	0.469
CTGCAGGCATGGACCGGTTTTCCCGGTAATCCGTATTTGAG (site CTGCAGGCTCT)	1.5
CTGCATGCATGGACCGGTTTTCCCGGTAATCCGTATTTGGT (site ATGCATGCTAC)	0.0144
CTGCATGCATGGACCGGTTTTCCCGGTAATCCGTATTTGGT (site CTGCATGCTAC)	1.57
CTGCATGCATGGACCGGTTTTCCCGGTAATCCGTATTTGGT (site GTGCATGCTAC)	0.0408
CTGCATGCATGGACCGGTTTTCCCGGTAATCCGTATTTGGT (site TTGCATGCTAC)	0.0633
CTGCCAACATGGACCGGTTTTCCCGGTAATCCGTATTTGAA (site CTGCCAACTTT)	0.912
CTGCCGGCATGGACCGGTTTTCCCGGTAATCCGTATTTGCA (site CTGCCGGCTTG)	2.01
CTGCCTACATGGACCGGTTTTCCCGGTAATCCGTATTTGAG (site CTACCTACTCT)	1.04
CTGCCTACATGGACCGGTTTTCCCGGTAATCCGTATTTGAG (site CTCCCTACTCT)	0.00401
CTGCCTACATGGACCGGTTTTCCCGGTAATCCGTATTTGAG (site CTGCCTACTCT)	1.03
